According to ChEMBL document CHEMBL4411335, “Identification and Optimization of Novel Small c-Abl Kinase Activators Using Fragment and HTS Methodologies” (J Med Chem, 2019):
Values after ≈ are worked out from the molar mass of the structure shown.

What was measured:
[1] = Kinetic solubility of the compound at pH 7.4 after 1 hr by CLND-based assay; type: physicochemical; conditions: buffer, read-out: Kinetic_solubility
[2] = target: T1, Tyrosine-protein kinase ABL1 (Homo sapiens, UniProt P00519); assay: Activation of full length human 6His-tagged c-Abl expressed in baculovirus expression system using abltide as substrate after 2 hrs by IMAP assay; conditions: read-out: pIC50 (converted)
T1 sequence (P00519 whole entry): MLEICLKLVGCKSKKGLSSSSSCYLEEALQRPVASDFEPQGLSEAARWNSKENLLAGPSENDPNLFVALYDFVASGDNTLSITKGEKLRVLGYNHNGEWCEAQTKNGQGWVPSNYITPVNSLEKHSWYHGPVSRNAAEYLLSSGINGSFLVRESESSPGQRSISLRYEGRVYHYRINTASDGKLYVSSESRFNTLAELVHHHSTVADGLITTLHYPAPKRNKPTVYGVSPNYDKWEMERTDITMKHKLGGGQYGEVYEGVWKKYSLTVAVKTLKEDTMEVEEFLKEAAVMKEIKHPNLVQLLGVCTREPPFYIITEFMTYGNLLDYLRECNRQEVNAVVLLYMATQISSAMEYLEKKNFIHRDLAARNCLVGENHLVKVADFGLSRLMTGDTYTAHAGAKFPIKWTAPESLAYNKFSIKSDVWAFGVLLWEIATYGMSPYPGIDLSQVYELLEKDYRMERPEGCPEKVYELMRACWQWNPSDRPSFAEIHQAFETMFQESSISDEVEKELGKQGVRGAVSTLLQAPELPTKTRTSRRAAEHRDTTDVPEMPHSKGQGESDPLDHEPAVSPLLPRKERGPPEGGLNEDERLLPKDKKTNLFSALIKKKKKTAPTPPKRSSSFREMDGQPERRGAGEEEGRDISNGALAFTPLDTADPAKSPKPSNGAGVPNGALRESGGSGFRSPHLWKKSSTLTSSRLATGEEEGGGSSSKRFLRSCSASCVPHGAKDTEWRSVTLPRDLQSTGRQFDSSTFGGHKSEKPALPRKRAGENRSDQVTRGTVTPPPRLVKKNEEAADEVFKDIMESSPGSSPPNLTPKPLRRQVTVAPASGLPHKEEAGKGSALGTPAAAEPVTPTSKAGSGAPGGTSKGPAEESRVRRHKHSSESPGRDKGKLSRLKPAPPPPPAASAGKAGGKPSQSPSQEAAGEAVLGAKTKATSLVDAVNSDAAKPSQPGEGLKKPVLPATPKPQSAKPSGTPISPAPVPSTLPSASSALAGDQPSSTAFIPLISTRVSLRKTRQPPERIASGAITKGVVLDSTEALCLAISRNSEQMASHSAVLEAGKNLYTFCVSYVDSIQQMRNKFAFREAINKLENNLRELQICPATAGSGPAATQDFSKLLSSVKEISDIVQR

[3] = Permeability of the compound at […] after 3 hrs by artificial membrane permeability assay; type: ADME; conditions: PAMPA; read-out: permeability
[4] = target: Tyrosine-protein kinase ABL1 (Homo sapiens, UniProt P00519, D382N); assay: Displacement of Myr-GQQPGKVLGDQRRPSL(K-TAMRA)G-amide from N-terminal-truncated human c-ABL D382N mutant (46 to 534 residues) after 30 mins by fluorescence polarization binding assay
Chain of Tyrosine-protein kinase ABL1 (Homo sapiens, UniProt P00519, D382N) (P00519 as listed by the source D382N): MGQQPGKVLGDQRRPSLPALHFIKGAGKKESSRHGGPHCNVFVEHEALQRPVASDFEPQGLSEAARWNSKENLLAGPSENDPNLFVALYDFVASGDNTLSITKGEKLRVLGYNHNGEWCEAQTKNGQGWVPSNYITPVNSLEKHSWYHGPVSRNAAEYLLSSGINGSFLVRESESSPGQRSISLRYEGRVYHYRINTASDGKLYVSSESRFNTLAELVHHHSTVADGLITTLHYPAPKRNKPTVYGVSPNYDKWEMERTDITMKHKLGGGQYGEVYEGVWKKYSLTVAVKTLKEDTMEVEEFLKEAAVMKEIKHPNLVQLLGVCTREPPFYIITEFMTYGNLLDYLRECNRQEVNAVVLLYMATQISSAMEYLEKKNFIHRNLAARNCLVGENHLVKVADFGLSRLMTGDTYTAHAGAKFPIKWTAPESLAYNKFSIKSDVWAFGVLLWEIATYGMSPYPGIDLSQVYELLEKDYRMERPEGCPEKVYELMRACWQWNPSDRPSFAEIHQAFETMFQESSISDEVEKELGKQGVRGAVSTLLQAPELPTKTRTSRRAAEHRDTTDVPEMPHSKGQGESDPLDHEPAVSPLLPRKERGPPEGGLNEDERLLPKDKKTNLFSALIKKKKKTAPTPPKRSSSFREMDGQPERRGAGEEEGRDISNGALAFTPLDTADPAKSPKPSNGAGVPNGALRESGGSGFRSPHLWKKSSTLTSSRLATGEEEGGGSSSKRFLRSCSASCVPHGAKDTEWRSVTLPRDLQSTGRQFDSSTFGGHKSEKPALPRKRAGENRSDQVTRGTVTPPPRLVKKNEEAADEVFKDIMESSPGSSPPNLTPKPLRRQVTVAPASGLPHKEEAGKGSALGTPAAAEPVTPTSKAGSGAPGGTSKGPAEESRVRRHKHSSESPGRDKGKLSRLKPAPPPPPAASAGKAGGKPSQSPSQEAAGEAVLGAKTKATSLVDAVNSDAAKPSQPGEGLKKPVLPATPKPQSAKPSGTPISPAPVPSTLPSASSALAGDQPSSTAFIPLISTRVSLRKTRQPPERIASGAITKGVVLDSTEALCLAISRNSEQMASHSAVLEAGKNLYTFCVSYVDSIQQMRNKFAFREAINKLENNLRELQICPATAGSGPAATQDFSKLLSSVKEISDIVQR

[5] = target: T1, Tyrosine-protein kinase ABL1; assay: Induction of human c-ABL phosphorylation at Y245/Y412 residues in bacmam-induced HEK-MSR2 cell lysates by in-cell Western blot analysis; type: subcellular, Lysate

SMILES	solubility kinetic at 1 h [1] [µM]	EC50 for c-Abl activation [2] [nM]	Papp at 3 h [3] [×10⁻⁶ cm/s]	IC50 [4] [nM]	EC50 [5] [nM]
CC(=O)Nc1nc(-c2ccc(Cl)c(Cl)c2)cs1	< 1	2510	19.6	316	31600
CC(=O)NC1=NN(c2ccc(Cl)c(Cl)c2)CC1	31 (≈ 8.44 µg/mL)	316	36	398	794
CC(=O)Nc1nc(-c2cccc(Cl)c2)cs1	2 (≈ 0.505 µg/mL)	7940	34	> 50100	
O=C(NC1=NN(c2ccc(Cl)c(Cl)c2)CC1)c1ccncc1	9 (≈ 3.02 µg/mL)	200	30.3	316	1580
N#CCC(=O)Nc1nsc(-c2ccc(Cl)c(Cl)c2)n1	69 (≈ 21.6 µg/mL)	2000	28	2510	15800
CC(=O)NC1=NN(c2ccc(Cl)c(Cl)c2)[C@H](C)C1	173 (≈ 49.5 µg/mL)	2000	41	1580	10000
O=C(NC1=NN(c2ccc(Cl)c(Cl)c2)CC1)c1cccnc1F	13 (≈ 4.59 µg/mL)	126	57	398	1260
CC(=O)Nc1nc(-c2ccc(Cl)c(F)c2)cs1	5 (≈ 1.35 µg/mL)	3160	35	794	50100
O=C(Nc1nc(-c2ccc(Cl)c(Cl)c2)cs1)c1cccnc1	20 (≈ 7 µg/mL)	398	37	200	> 50100
CC(=O)Nc1nc(-c2nc(C)no2)cs1	186 (≈ 41.7 µg/mL)	> 100000	25	> 50100	
O=C(Nc1nc(-c2ccc(Cl)c(Cl)c2)cs1)c1cncs1	2 (≈ 0.713 µg/mL)	501	6.1	200	> 50100
N#CCC(=O)Nc1nc(-c2ccc(Cl)c(Cl)c2)c[nH]1	14 (≈ 4.13 µg/mL)	1580	31	631	3160
O=C(NC1=NN(c2ccc(Cl)c(Cl)c2)CC1)c1cccnc1	4 (≈ 1.34 µg/mL)	158	30.5	251	631
N#CCC(=O)Nc1cccc(-c2ccc(Cl)c(Cl)c2)n1	1 (≈ 0.306 µg/mL)	12600	21.5	1580	> 50100
CC(=O)NC1=NN(c2ccc(Cl)c(Cl)c2)C[C@@H]1C	32 (≈ 9.16 µg/mL)		42	398	631
CC(=O)Nc1nc(-c2ccc(Cl)c(C)c2)cs1	1 (≈ 0.267 µg/mL)	31600	14	794	> 50100
N#CCC(=O)Nc1csc(-c2ccc(Cl)c(Cl)c2)n1	2 (≈ 0.624 µg/mL)	1580	35	126	15800
N#CCC(=O)Nc1nc(-c2ccc(Cl)c(Cl)c2)cs1	57 (≈ 17.8 µg/mL)	1260	14.2	501	5010
O=C(NC1=NN(c2ccc(Cl)c(Cl)c2)CC1)c1cncnc1	8 (≈ 2.69 µg/mL)	251	35	501	631
N#CCC(=O)Nc1nc(-c2ccc(Cl)c(Cl)c2)ns1	370 (≈ 116 µg/mL)	3160	23	1000	10000
O=C(NC1=NN(c2ccc(Cl)c(Cl)c2)CC1)c1ccncn1	13 (≈ 4.37 µg/mL)	15800	32	1000	39800
O=C(NC1=NN(c2ccc(Cl)c(Cl)c2)CC1)c1ccnnc1	23 (≈ 7.73 µg/mL)	251	36	501	501
N#CCC(=O)Nc1ccn(-c2ccc(Cl)c(Cl)c2)n1	34 (≈ 10 µg/mL)	2510	31	1580	7940
CC(=O)NC1=NN(c2ccc(Cl)c(Cl)c2)CC1C (racemic)	49 (≈ 14 µg/mL)		40.5	794	501
O=C(NC1=NN(c2ccc(Cl)c(Cl)c2)CC1CCO)c1cccnc1 (racemic)	192 (≈ 72.8 µg/mL)	126	19	251	7940
